Series [1] relates to mice. Briefly: Inducing the mice to sleep by a subthreshold dose of pentobarbital sodium. Format: in vivo, Kunming mice. As to conditions: Estazolam 2 mg/kg; pentobarbital sodium 30 mg/kg ip; n = 20. The procedure: Eighty Kunming mice, half males and half females, were fasted for 12 h but free to drink water. The mice were randomly divided into four groups: a blank control group, a low does Compound group (0.4 g/kg, ig), a high dose Compound group (0.8 g/kg, ig) and a positive drug control group (Estazolam, 2 mg/kg). each group of mice was administered according to the above doses (ig), and the blank control group was given the same volume of normal saline. Forty-five minutes later, each mouse was given (ip) 30 mg/kg pentobarbital sodium, and the number of mice falling asleep within 15 min was recorded by taking the absence of righting reflex more than 1 min as the indicator of falling asleep.

Series [2] concerns mice. Kind of series: Mouse spontaneous activity test. Format: in vivo, Kunming mice. The protocol:
Forty Kunming mice, half males and half females, were fasted for 12 h but free to drink water. The mice were randomly divided into four groups: a blank control group, a low does Compound group (0.4 g/kg, ig), a high dose Compound group (0.8 g/kg, ig) and a positive drug control group (Estazolam, 2 mg/kg). The mice were placed into the YLS-1A multifunctional recorder for spontaneous activities of small animals. After 5 minutes of adaptation, the number of the mice's spontaneous activities before administration were recorded, and the recording lasted for 10 minutes. The room was kept quiet during recording, at a room temperature of 20-24° C. After this, each group of mice was administered according to the above doses, and the number of spontaneous activities within 10 min were recorded 45 min later. The blank control group was given the same volume of normal saline (ig).

Another series deals with rats. Briefly: Physical dependence test: induced withdrawal test for the rats. As to conditions: morphine hydrochloride sc twice a day, increasing 5 to 60 mg/kg, 7 days; naloxone 5 mg/kg ip day 8. The protocol:
The compound group was administered (ig) twice a day according to the dose increasing principle, at daily doses of 0.5, 1.0, 1.5, 2.0, 2.5, 3.0 g/kg. The dose was increased every day from 0.5 g/kg to 3.0 g/kg on day 6 which was adopted the same on day 7. The negative control group was given (ig) the same volume of vegetable oil per day at the same time and for the same times as the compound group. On day 8, the rats in each group were given naloxone (5 mg/kg, ip) to induce withdrawal, and the withdrawal status of the rats within 30 min and the weight change one hour before and after the inducement were observed. The evaluation criteria of withdrawal symptoms of rats were established by referring to the Tomoji Yanagita evaluation criteria and our pre-experimental results (see Appendix Table 17). The withdrawal scores and weight loss values of each group of rats were statistically processed. Weight loss value=weight before inducement−weight after inducement.

The test system of series [3] is mice. Briefly: Physical dependence test: induced withdrawal test for the mice. Conditions: morphine hydrochloride sc twice a day, increasing 25 to 150 mg/kg daily, 7 days, naloxone 8 mg/kg ip. The procedure: The daily doses were 25, 50, 75, 100, 125, 150 mg/kg according to the dose increasing principle, increased day by day, reached 150 mg/kg on day 6 which was adopted the same on day 7. The compound group was administered (ig) twice daily (8:00 am, 8:00 pm) at daily doses of 0.6, 1.2, 1.8, 2.4, 3.0, 3.6 g/kg. The dose increased every day from 0.6 g/kg to 3.6 g/kg on day 6 which was adopted the same on day 7. The negative control group was given (ig) the same volume of vegetable oil every day at the same time and for the same times as the compound group. On day 7, naloxone (8 mg/kg, ip) was given to each group of mice to induce withdrawal. The jump reaction within 30 min and weight change one hour before and after inducement were observed. Weight loss value=weight before inducement−weight after inducement.

The subject of another series is morphine-dependent mice. Kind of series: Therapeutic effect on naloxone-induced withdrawal symptoms of morphine-dependent mice. Conditions: methadone 20 mg/kg ig. Format: in vivo, Kunming mice. The protocol:
The model of morphine-dependent mice was replicated by the dose-increasing method. […] Group (1) was a blank control group, injected subcutaneously (sc) with normal saline (0.2 ml/10 g), and groups (2)˜(5) were used to replicate the model of morphine-dependent mice by the dose-increasing method.
The administration continued for 3 days for each group. Mice were free to drink and eat. Naloxone (8.0 mg/kg, ip) was given 1 h after administrations on d1 and d3 during the treatment to induce withdrawal symptoms, and jumping reaction in 30 min and body weights before and after the inducement were observed.

Series [4] relates to mice. Kind of series: Acetic acid writhing test of mice. In kind it is in vivo, Kunming mice. As to conditions: methadone 20 mg/kg, delivery route im; 0.6% acetic acid ip; in 20 min. The procedure: Forty Kunming mice, male, were fasted for 12 h before the experiment but free to drink water. They were randomly divided into 4 groups: a blank control group, a low dose Compound group, a high dose Compound group, and a positive control group. […] The mice were administered (ig) at a low dose (0.4 g/kg) and a high dose (0.8 g/kg) of the compound, at a volume of 0.2 ml per 10 g body weight. The positive control group was administered (ip) methadone (20 mg/kg) and the blank control group was given (ig) the same volume of normal saline. Forty-five minutes after administration, each mouse was given (ip) 0.6% acetic acid, 0.2 ml for each. The mice were then observed for writhing reaction, with abdominal contraction and hind limb extension or hip elevation regarded as positive. Times of writhing in 20 min were recorded starting from 5 min after acetic acid injection. The analgesic effect was evaluated by taking completely inhibiting writhing reaction induced by acetic acid as an indicator.
In general terms: Writhing tests count abdominal constrictions after an irritant is injected.

For series [5], the system named is mice. Kind of series: Hot plate test of analgesic effect. In kind it is in vivo, Kunming mice. As to conditions: hot plate 55° C.; for Pain threshold: methadone 20 mg/kg, cut-off 60 seconds. The protocol: Kunming mice, female, were selected. And a selection among them was conducted prior to the test. The hot plate was adjusted to 55° C.±0.5° C., the female mice were placed on the hot plate, and the duration (in seconds) required from placing the mice on the hot plate until the mice licked their feet as the normal pain threshold of the mice. All those who licked their feet within 5 s or after 30 s and jumped were abandoned. Forty qualified mice were selected and randomly divided into 4 groups: a blank control group, a low dose Compound group, a high dose Compound group, and a positive control group, 10 mice per group. The normal pain threshold of each mouse was measured repeatedly, and the average of two measurements was taken as the pre-administration pain threshold of the mouse. Each group was then administered (at doses and by delivery routes as above), 0.2 ml per 10 g body weight. The pain threshold of each group was measured 60 min and 120 min after administration. If a mouse remained unresponsive for more than 60 seconds on the hot plate, its pain threshold was calculated as 60 seconds.
On the technique in general: In hot-plate and tail-flick tests a longer latency is read as antinociception.

For series [6], the system named is morphine-induced place preference of mice. Briefly: Conditioned place preference of morphine-induced mice. Format: in vivo, Kunming mice. The protocol: The mice were acclimatized for 3 days, the natural place preference time of the mice was measured before the administration, so that the mice with obvious preference on one cuboid of the experimental box were excluded to clear the effect of unconditional place preference on the results. […] The observation was conducted under sound insulation conditions. […] Thus, the white cuboid was used as the non-preferred side (i.e., the companion box).
After 6 consecutive days of training and administration, the mice developed conditioned place preference.
Each group was administered for 3 consecutive days.

Consider three compounds from US11000555B2, “Method for preparing a limax compound and therapeutic use thereof” (GUANGXI JIUFU BIOTECHNOLOGY CO., LTD, priority 2017, dated 2021).

The structures appear in SMILES notation. Where a name gives a salt, the structure may show the parent alone. Marks after values point to notes of the source that are not given here.

For the compound `Clc1ccc2c(c1)C(c1ccccc1)=NCc1nncn1-2` [Estazolam, reference compound], in the series with mice [1], the “Number of the mice showing disappearance of righting reflex” value was found to be 18 per group. Moreover, the “Number of spontaneous activities” value in the series with mice [2] (After administration (45 min), Estazolam 2 mg/kg) was 45.4 ± 34.43**^ΔΔ per 10 min; in the series on mice [2] (Before administration, Estazolam group) it was 136.6 ± 43.35 per 10 min.
With `CN1CC[C@]23c4c5ccc(O)c4O[C@H]2[C@@H](O)C=C[C@H]3[C@H]1C5.Cl` [Morphine, Morphine hydrochloride, reference compound], in the series with rats, the “Induced withdrawal symptom score” value was 76.9 ± 14.53. The Weight loss with mice [3] was 0.57 ± 0.25 g. The Number of jumps with mice [3] (30 min) was 64.10 ± 15.29.
With `CCC(=O)C(CC(C)N(C)C)(c1ccccc1)c1ccccc1` (stereo not drawn) [methadone, Methadone hydrochloride, reference compound], the “Numbers of jumping reactions of mice (mice of n = 10)” value in the series with morphine-dependent mice (d 1) and in the series with morphine-dependent mice (d 3) was 10 each time. For the same compound, the “Numbers of jumping reactions of mice, percentage” value with morphine-dependent mice (d 1) and with morphine-dependent mice (d 3) was 100% throughout. Further, the figures for the “Weight change: body weights of mice before and after induced withdrawal” value with morphine-dependent mice (d 1) and with morphine-dependent mice (d 3) were 0.22 ± 0.19 g and 0.46 ± 0.23 g, respectively. This compound had a Times of writhing in the series with mice [4] of 8.7 ± 3.74. Further, the Pain threshold in the series on mice [5] (60 min) was 58.4 ± 9.05 s; in the series with mice [5] (120 min), 51.5 ± 10.11 s. In addition, in the series on mice [5] (base line, methadone group), the “Pain threshold before administration” value is recorded as 24.4 ± 5.72 s. For the same compound, the “Duration of mice staying in companion box” value is recorded as 499.6 ± 123.26*^ΔΔ s in series [6] (After administration, methadone 20 mg/kg ig 3 days + morphine 9 mg/kg sc, 15 min observation) and 333.7 ± 114.95 s in series [6] (Before administration (base line), methadone 20 mg/kg + morphine 9 mg/kg group).
